Experimental data from patent US20200171028A1, “METALLOENZYME INHIBITOR COMPOUNDS” (Viiamet Pharmaceuticals Holdings, LLC, priority 2017, published 2020).

What was measured:
Type in all cases: biochemical
[1] = target: HDAC2 (Homo sapiens, UniProt Q92769); assay: HDAC2 enzymatic assay
Procedure: (§1) All enzymatic reactions were conducted in duplicate at room temperature for 17 hours in a 50 μl mixture containing HDAC assay buffer (50 mM Tris-HCl, pH 7.4, 137 mM NaCl, 2.7 mM KCl, 0.05% Tween 20, 5 μg BSA), an HDAC substrate, an HDAC enzyme, and a test compound. Compound dilution was prepared ten-fold higher than the final concentration of the compounds with 10% DMSO in HDAC assay buffer and 5 al of the dilution was added to a 50 al reaction so that the final concentration of DMSO is 1% in all of reactions. After enzymatic reactions, 50 μl of HDAC Developer was added to each well and the plate was incubated at room temperature for an additional 20 minutes. Fluorescence intensity was measured at an excitation of 360 nm and an emission of 460 nm using a Tecan Infinite M1000 or Biotek Synergy microplate reader. The fluorescent intensity data were analyzed using the computer software, Graphpad Prism. In the absence of the compound, the fluorescent intensity (Ft) in each data set was defined as 100% activity. In the absence of HDAC, the fluorescent intensity (Fb) in each data set was defined as 0% activity. The percent activity in the presence of each compound was calculated according to the following equation: % activity=(F−Fb)/(Ft−Fb), where F=the fluorescent intensity in the presence of the compound. […]

[2] = target: HDAC3/NCOR2 (Homo sapiens, UniProt O15379); assay: HDAC3 enzymatic assay
Procedure: as §1

[3] = target: HDAC4 (Homo sapiens, UniProt P56524); assay: HDAC4 enzymatic assay; details: Table 3 comparison results
Procedure: as §1

[4] = target: HDAC5 (Homo sapiens, UniProt Q9UQL6); assay: HDAC5 enzymatic assay; details: Table 3 comparison results
Procedure: as §1

[5] = target: T1, HDAC6 (Homo sapiens, UniProt Q9UBN7); assay: HDAC6 enzymatic assay; details: Table 3 comparison results
T1 sequence (Q9UBN7 1-1215): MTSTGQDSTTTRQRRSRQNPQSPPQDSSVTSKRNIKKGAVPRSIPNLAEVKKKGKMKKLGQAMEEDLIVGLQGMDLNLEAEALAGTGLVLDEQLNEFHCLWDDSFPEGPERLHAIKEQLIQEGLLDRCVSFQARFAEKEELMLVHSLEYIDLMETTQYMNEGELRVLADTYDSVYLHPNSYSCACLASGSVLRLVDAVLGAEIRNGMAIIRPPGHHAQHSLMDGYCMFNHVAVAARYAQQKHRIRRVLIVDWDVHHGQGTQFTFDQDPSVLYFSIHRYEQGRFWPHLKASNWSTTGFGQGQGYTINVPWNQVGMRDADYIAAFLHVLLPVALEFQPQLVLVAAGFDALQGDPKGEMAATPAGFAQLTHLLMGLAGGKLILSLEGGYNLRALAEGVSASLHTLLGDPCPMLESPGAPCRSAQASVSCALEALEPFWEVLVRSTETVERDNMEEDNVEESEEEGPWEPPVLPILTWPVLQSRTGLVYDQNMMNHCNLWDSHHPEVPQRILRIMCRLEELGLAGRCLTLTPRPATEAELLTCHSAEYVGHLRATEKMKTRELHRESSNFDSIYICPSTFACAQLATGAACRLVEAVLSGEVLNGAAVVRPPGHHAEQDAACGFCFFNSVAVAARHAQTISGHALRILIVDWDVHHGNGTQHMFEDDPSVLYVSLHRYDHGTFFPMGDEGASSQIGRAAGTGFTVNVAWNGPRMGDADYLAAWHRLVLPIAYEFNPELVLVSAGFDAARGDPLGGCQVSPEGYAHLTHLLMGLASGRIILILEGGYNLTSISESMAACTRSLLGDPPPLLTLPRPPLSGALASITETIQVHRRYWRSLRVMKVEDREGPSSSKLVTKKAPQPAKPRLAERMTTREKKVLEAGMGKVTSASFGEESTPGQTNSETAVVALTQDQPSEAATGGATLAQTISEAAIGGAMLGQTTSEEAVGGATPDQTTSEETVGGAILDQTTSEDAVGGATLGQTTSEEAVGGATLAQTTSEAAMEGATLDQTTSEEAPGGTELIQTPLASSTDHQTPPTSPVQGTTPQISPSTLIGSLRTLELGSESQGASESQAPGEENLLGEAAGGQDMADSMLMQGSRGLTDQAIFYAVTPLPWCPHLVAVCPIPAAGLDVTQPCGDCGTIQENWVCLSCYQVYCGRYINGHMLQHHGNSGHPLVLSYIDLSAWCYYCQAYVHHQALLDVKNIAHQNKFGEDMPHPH
Procedure: as §1

[6] = target: T2, HDAC7 (Homo sapiens, UniProt Q8WUI4); assay: HDAC7 enzymatic assay; details: Table 3 comparison results
T2 sequence (Q8WUI4 1-952): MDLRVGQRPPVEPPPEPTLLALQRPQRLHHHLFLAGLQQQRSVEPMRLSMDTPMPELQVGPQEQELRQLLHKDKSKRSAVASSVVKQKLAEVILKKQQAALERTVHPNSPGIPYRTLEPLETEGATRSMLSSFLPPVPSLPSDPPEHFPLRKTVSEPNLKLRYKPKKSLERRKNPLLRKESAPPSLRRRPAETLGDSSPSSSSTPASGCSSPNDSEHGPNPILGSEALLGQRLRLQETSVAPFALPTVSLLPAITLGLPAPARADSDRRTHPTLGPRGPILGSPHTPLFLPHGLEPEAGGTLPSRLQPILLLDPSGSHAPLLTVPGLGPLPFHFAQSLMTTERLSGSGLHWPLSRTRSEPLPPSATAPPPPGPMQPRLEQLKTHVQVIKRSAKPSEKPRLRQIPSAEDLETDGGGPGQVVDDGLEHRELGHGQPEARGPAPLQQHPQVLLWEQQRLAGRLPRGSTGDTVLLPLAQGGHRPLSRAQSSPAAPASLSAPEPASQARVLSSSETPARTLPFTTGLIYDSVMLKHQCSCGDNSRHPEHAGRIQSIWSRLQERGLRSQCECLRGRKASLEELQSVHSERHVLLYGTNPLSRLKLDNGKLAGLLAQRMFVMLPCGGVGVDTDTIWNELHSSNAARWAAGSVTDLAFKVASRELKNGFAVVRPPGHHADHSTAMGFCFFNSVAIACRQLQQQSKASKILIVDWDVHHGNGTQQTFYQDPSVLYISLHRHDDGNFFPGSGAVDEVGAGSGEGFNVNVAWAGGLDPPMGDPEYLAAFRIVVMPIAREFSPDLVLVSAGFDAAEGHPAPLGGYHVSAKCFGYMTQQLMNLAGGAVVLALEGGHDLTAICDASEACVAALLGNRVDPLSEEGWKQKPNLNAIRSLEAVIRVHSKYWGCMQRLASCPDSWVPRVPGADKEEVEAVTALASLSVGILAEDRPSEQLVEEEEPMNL
Procedure: as §1

[7] = target: T3, HDAC8 (Homo sapiens, UniProt Q9BY41); assay: HDAC8 enzymatic assay
T3 sequence (Q9BY41 1-377): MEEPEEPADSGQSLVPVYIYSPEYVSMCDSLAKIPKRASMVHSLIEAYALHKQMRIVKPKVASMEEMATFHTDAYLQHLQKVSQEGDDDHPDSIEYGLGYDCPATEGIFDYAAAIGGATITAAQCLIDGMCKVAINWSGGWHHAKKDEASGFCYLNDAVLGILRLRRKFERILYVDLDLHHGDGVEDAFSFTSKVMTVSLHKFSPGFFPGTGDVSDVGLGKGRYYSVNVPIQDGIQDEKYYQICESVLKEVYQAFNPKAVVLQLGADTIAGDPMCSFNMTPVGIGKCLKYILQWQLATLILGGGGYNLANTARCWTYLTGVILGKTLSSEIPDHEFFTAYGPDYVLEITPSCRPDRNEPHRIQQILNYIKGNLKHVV
Procedure: as §1

[8] = target: HDAC9 (Homo sapiens, UniProt Q9UKV0); assay: HDAC9 enzymatic assay; details: Table 3 comparison results
Procedure: as §1

[9] = target: T4, HDAC10 (Homo sapiens, UniProt Q969S8); assay: HDAC10 enzymatic assay; details: Table 3 comparison results
T4 sequence (Q969S8 1-669): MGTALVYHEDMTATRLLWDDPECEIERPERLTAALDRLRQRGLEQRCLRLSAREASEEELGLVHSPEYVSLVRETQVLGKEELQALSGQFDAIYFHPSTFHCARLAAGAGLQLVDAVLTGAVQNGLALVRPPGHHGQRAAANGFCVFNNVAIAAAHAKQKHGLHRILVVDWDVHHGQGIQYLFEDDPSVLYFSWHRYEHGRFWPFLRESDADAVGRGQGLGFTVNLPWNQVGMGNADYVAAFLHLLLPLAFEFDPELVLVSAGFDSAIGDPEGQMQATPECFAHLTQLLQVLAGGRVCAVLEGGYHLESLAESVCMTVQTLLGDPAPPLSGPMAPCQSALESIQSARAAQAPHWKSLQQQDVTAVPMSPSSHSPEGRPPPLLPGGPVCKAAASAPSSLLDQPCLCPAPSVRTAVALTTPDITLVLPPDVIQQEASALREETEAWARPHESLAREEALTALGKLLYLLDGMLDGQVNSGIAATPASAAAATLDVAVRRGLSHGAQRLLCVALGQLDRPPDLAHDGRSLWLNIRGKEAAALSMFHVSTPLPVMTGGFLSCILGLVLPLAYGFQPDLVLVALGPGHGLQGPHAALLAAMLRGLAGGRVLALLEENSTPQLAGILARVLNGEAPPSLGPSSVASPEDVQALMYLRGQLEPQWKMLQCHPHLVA
Procedure: as §1

[10] = target: T5, HDAC11 (Homo sapiens, UniProt Q96DB2); assay: HDAC11 enzymatic assay; details: Table 3 comparison results
T5 sequence (Q96DB2 1-347): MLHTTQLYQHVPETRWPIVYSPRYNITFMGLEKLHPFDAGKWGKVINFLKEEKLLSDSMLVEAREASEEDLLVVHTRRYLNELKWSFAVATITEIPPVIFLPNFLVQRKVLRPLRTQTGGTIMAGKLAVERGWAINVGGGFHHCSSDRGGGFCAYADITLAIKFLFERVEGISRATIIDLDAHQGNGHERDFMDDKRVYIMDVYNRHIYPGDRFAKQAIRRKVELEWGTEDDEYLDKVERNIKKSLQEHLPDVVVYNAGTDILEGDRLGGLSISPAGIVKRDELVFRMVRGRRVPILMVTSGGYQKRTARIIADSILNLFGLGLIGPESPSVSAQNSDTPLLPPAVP
Procedure: as §1

[11] = target: HDAC1 (Homo sapiens, UniProt Q13547); assay: HDAC1 enzymatic assay
Procedure: as §1

Chain of HDAC9 (Q9UKV0 whole entry): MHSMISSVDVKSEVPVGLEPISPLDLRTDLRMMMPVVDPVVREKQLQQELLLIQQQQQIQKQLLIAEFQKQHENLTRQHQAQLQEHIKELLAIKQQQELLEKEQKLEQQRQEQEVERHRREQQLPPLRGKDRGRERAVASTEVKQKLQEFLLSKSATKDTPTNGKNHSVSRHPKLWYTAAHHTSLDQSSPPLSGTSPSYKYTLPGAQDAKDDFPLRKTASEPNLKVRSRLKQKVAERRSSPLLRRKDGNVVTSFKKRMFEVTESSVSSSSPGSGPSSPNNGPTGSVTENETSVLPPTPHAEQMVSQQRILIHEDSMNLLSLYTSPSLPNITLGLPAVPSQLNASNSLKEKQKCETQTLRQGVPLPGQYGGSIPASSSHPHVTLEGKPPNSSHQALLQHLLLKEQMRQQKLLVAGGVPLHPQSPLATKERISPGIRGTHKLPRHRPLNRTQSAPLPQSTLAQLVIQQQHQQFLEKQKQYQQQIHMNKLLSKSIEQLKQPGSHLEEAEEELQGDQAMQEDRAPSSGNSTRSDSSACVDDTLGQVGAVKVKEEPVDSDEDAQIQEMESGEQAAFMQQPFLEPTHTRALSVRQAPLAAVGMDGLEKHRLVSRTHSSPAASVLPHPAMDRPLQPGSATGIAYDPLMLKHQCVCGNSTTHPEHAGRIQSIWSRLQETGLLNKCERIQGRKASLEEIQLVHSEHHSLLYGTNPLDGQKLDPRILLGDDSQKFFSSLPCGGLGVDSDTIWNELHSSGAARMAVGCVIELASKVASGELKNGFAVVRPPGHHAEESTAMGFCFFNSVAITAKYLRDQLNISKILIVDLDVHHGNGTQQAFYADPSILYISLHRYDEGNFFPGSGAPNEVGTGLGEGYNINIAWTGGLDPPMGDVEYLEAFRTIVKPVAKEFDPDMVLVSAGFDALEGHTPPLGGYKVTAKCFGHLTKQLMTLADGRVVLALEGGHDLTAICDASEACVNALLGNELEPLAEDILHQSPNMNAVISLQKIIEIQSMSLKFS
Chain of HDAC1 (Q13547 whole entry): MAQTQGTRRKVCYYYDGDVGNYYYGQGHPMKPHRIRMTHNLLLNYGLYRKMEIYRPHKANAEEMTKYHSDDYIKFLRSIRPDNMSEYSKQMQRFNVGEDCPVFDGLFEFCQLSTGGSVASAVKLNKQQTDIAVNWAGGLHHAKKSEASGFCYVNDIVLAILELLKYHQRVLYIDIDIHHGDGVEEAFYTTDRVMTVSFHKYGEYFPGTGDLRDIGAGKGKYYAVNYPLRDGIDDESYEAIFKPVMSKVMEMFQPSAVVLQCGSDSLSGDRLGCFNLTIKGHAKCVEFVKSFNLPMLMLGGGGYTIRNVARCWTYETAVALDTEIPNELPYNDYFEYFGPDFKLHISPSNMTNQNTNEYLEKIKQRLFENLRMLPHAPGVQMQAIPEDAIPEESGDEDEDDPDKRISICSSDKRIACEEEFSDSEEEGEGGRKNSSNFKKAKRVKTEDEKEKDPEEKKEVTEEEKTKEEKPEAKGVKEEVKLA
Chain of HDAC4 (P56524 whole entry): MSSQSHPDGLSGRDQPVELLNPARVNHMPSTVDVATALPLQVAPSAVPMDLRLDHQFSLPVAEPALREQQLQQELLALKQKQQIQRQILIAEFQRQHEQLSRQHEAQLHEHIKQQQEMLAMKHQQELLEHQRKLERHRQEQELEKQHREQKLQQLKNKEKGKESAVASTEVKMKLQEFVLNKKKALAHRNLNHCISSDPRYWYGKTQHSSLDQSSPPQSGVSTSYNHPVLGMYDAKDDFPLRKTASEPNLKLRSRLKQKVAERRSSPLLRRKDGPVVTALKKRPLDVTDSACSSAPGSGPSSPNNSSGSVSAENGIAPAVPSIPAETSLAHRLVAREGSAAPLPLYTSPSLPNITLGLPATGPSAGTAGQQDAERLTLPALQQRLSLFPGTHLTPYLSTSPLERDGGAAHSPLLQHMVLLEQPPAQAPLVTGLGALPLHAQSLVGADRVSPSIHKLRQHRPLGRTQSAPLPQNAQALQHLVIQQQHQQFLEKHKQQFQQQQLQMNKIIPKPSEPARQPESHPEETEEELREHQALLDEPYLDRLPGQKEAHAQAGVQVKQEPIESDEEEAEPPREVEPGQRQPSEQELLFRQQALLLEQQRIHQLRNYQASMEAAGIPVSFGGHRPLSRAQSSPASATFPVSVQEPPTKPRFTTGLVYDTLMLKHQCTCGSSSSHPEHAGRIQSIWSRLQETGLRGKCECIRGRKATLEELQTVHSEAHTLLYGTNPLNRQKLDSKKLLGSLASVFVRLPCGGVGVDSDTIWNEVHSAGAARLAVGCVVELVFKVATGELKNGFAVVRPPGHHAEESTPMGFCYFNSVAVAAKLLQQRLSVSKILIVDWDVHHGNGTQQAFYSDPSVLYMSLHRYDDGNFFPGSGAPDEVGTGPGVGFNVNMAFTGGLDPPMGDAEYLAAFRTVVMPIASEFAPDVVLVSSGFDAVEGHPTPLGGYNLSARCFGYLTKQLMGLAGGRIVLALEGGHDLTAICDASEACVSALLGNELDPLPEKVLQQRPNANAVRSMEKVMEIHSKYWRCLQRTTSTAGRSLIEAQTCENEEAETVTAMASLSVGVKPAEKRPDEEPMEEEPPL
Chain of HDAC3/NCOR2 (Q9Y618 395-489): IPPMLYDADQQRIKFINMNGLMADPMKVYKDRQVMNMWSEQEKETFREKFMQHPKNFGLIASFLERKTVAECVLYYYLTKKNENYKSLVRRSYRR
Chain of HDAC3/NCOR2 (O15379 whole entry): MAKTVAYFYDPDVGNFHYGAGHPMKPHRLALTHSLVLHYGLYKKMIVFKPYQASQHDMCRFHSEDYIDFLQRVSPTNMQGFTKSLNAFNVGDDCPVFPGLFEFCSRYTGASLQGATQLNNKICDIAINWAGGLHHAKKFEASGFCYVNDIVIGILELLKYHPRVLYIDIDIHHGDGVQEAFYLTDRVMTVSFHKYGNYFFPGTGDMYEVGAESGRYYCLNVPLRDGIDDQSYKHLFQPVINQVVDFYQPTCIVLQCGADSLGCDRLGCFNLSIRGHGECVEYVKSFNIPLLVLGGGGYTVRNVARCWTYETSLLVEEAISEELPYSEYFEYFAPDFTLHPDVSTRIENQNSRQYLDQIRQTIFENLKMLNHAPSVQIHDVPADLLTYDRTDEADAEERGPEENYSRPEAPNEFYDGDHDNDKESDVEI
Chain of HDAC5 (Q9UQL6 whole entry): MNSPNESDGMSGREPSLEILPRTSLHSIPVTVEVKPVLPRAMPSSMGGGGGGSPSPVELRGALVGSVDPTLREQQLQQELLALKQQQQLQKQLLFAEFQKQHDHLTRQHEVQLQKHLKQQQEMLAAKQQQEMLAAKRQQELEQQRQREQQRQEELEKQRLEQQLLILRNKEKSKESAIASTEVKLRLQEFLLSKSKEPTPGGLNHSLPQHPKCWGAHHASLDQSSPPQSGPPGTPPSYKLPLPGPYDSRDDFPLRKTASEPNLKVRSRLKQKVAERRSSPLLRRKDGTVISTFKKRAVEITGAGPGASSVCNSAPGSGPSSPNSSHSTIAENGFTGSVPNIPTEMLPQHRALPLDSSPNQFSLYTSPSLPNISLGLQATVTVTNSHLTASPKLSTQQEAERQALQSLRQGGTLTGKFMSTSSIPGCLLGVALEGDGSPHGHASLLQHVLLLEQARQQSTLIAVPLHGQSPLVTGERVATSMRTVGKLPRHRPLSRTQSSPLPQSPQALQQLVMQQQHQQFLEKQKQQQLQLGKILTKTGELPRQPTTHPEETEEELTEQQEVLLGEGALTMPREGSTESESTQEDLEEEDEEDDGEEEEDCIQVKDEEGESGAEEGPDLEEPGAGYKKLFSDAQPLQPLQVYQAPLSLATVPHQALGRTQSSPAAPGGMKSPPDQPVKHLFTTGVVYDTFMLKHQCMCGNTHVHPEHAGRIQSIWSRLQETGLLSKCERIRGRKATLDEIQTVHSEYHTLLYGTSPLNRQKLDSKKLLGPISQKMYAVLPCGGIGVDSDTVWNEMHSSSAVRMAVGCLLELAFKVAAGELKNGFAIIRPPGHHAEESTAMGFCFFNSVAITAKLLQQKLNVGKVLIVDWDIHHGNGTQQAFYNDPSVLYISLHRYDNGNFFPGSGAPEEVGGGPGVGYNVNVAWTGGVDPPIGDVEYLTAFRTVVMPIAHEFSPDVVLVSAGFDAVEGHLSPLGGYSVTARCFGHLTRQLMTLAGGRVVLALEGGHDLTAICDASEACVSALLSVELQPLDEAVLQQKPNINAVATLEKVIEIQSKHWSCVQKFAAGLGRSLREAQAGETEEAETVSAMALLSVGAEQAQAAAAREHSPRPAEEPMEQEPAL
Chain of HDAC2 (Q92769 whole entry): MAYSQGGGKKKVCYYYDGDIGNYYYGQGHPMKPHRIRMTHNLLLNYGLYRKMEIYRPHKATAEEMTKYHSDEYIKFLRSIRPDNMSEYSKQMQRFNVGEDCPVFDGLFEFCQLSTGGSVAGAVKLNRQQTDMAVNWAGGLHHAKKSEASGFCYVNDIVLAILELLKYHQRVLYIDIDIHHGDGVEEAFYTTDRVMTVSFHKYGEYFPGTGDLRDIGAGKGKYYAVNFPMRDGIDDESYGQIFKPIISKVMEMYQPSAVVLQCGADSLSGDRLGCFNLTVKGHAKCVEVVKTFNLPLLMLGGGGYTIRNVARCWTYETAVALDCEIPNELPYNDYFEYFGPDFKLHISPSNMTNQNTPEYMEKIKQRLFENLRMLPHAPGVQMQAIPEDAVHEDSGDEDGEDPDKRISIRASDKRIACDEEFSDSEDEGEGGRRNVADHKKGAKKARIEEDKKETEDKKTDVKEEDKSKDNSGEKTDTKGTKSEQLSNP

## FC(F)(F)c1nc(-c2cnc(NC3(c4ccccc4)CC3)nc2)no1
[1]
  IC50: 13000 nM
[2]
  IC50: 4100 nM
[3]
  IC50: 13 nM
[4]
  IC50: 250 nM
[5]
  IC50: 150 nM
[6]
  IC50: 20 nM
[7]
  IC50: > 30000 nM
[8]
  IC50: 77 nM
[9]
  IC50: 6400 nM
[10]
  IC50: > 30000 nM

## FC(F)c1nc(-c2cnc(NC3(c4ccccc4)CC3)nc2)no1
[11]
  IC50: > 30000 nM
[5]
  IC50: 2900 nM
